Laboratory results reported in patent US10138273B2, “Peptide ligands for hepatic stellate cells” (The Curators of the University of Missouri, priority 2015, dated 2018).
Where two headings read alike, the source gives them in different places. Ends that are not written are not given here.

What was measured:
[1] = test system: LX 2 cells; test: Cell viability (MTT) / apoptotic effect in LX 2 cells; assay type: cell-based, human
Method: (§1) LX 2 and HSC T6 (1×10^4 cells per well) cells were cultured in 96 well plates for 12 h in DMEM medium containing 10% FBS. The peptide 431/KLA fusion peptide, the mixture of peptide 431 and KLA peptide, and KIA peptide were incubated with the cells for 48 h. Cell viability was measured using MTT (3 (4,5 dimethylthiazol2 yi) 2,5 diphenyltetrazolium bromide) assay.
(§2) The proapoptotic peptide having the sequence of SEQ ID NO: 13, KLAKLAKKLAKLAK (KLA), is able to trigger mitochondrial disruption and induce cell death. However, the KLA peptide itself cannot enter cells to exert its proapoptotic activity. We therefore prepared a KLA/peptide 431 fusion peptide and examined its proapoptotic activity in LX 2 and HSC T6 cells.

[2] = test system: HSC-T6 cells; test: Cellular uptake of siRNA nanocomplexes in HSC-T6 cells; assay type: cell-based, rat; conditions: siRNA nanocomplex modified with Peptide-431 (SNPP) versus free siRNA, SNCP, SNVP, 50 nM siRNA
Method: (§3) The siRNA was labeled with Alexa Flour-647, and the nanocomplexes were prepared using neutravidin as we reported before. Approximately 100,000 cells (HSC-T6, LX-2)/well were seed into 24 well plate and incubator at 37 C for 12 hrs, free siRNA and nanocomplexes (SNCP, SNVP, SNPP) were then incubated with the cells at a final siRNA concentration of 50 nM. The fluorescence intensity of the cells at different intervals was detected by FACSCalibur Flow Cytometry (BD Biosciences, Franklin Lakes, N.J.). FIG. 17A depicts an evaluation of the cellular uptake of free siRNA and the nanocomplexes in HSC-T6 cells, and FIG. 17B depicts an evaluation of the cellular uptake of free siRNA and the nanocomplexes in LX-2 cells.

[3] = test system: human hepatic stellate cells LX 2; test: Cellular uptake of 5 FAM labeled peptides in LX 2 cells (flow cytometry); assay type: cell-based; conditions: for binding affinity compared to the control peptide and other selected peptides: LX 2 cells
Method: (§4) We examined cellular uptake of 5 FAM labeled peptides (425, 431, and 515) in human hepatic stellate cells LX 2 upon treatment with nonenzymatic cell dissociation solution and trypsin. […] We also evaluated the effect of incubation time on cellular uptake of the peptides. 5 FAM labeled peptide 431 was incubated with LX 2 cells for different incubation time points. […] Therefore, nonenzymatic cell dissociation solution and 1 h incubation time were selected to evaluate all the peptides (420, 422, 425, 431, 504, and 515) in human hepatic stellate cells LX 2 and rat hepatic stellate cells HSC T6.

[4] = test system: HSC T6 cells; test: Apparent equilibrium dissociation constant (Kd) on HSC T6 cells; assay type: binding, rat; conditions: 5 FAM labeled peptide, 1 h at 37° C., flow cytometry
Method: (§5) We next measured the apparent equilibrium dissociation constants (Kd) of the peptides (422, 425, 431, and 515) to LX 2 and HSC T6 cells as shown in FIG. 10A and FIG. 10B, respectively. The cells were incubated with 5 FAM labeled peptides at different concentrations for 1 h at 37° C. The labeled cells were detected by flow cytometry, and the apparent Kd value was calculated using GraphPad Prism. […] The result is consistent with the cellular uptake result depicted in FIGS. 7A-7B, 8A-8G, and 9A-9G.

[5] = test system: HSCs; test: Biodistribution of siRNA nanocomplexes in rats and rats with liver fibrosis; assay type: in vivo, rat; conditions: siRNA modified with Peptide-431 versus other delivery systems; tail vein, 0.065 mg/kg siRNA, 2 hrs
Method: The siRNA was labeled with Alexa Flour-647, and the nanocomplexes were prepared using neutravidin as we reported before. The free siRNA and nanocomplexes (SNCP, SNVP, SNPP) were injected into rats by tail vein at an siRNA dose of 0.065 mg/kg. After 2 hrs, the rats were sacrificed and the major organs including the liver, heart, lung, spleen, muscle, kidney, and blood were harvested for fluorescence imaging using a Xenogen IVIS imaging system.
The siRNA was labeled with Alexa Flour-647, and the nanocomplexes were prepared using neutravidin as we reported before. Liver fibrosis was inducted by injection of CCl4. The free siRNA and nanocomplexes (SNCP, SNVP, SNPP) were injected into rats with liver fibrosis by tail vein at an siRNA dose of 0.065 mg/kg. After 2 hrs, the rats were sacrificed and the major organs including the liver, heart, lung, spleen, muscle, kidney, and blood were harvested for fluorescence imaging using a small animal imaging system (Brunker MS FX Pro). FIG. 19 depicts images evaluating the biodistribution of free siRNA and the nanocomplexes in Rats with liver fibrosis.

[6] = test system: LX 2 cells; test: Serum protein binding study: uptake in LX 2 cells in media containing FBS; assay type: cell-based, human; conditions: LX 2, OptiMEM and DMEM with FBS up to 10%
Text: It is important to evaluate the stability of peptides in the presence of serum proteins, which may nonspecifically bind to IGF2R specific peptides. As a result, we evaluated the cellular uptake of 5 FAM labeled peptide 431 in LX 2 cells in the serum reduced medium OptiMEM and DMEM media containing different concentrations of FBS.

[7] = target: T1, IGF2R (Homo sapiens, UniProt P11717); test: Specificity of peptide 431 to IGF2R: uptake in IGF2R-silenced LX 2 cells; assay type: cell-based; design: the expression of IGF2R in LX 2 cells was silenced using siRNA; endogenous in cells; host or cells: LX-2 human hepatic stellate cells; conditions: for cellular uptake after silencing IGF2R with siRNA: LX 2, IGF2R siRNA versus scrambled siRNA
Method: In addition to affinity, we also evaluated the specificity of peptide 431 to IGF2R in LX 2 cells. For this purpose, the expression of IGF2R in LX 2 cells was silenced using siRNA As shown in FIGS. 11A-11B, the IGF2R siRNA (10 and 50 nM) dramatically knocked down the expression of IGF2R in LX 2 cells at the mRNA and protein levels.

[8] = target: T1, IGF2R; test: Phage ELISA on recombinant human IGF2R protein; assay type: binding; design: conducted using recombinant human IGF2R extracellular domain protein (the first, third, and fifth rounds); conditions: compared to peptide insertless control phage and other selected clones
Method: The binding affinity of the twenty-eight phages was evaluated by ELISA on recombinant human IGF2R protein. […] Additionally, the particular embodiment may include more specific aspects related to the materials and techniques employed by this method, which are described with more detail in the Experiment section below.
Twenty eight phage clones were randomly selected after the fourth and fifth rounds of biopanning and cultured in 1 mL of ER2738 bacteria (growing in early stage) at 37° C. for 4.5 h. Phage DNA was extracted, purified using the DNA clean system (Promega, Madison, Wis.), and then sequenced with an ABI Genetic Analyzer 3100 (Applied Biosystems, USA). The primer used for sequencing is SEQ ID NO: 14, 5′-CCCTCATAGTTAGCGTA ACG-3′. […] One of the phages was peptide insertless. In FIG. 3B, binding affinity of the selected phage clones encoding inserted peptides was evaluated by ELISA on recombinant human IGF2R protein.

[9] = test system: rat hepatic stellate cells HSC T6; test: Cellular uptake of 5 FAM labeled peptides in HSC T6 cells (flow cytometry); assay type: cell-based; conditions: 1 h incubation; for binding affinity compared to the control peptide and other selected peptides: HSC T6 cells
Method: as §4

[10] = test system: LX-2 cells; test: Cellular uptake of siRNA nanocomplexes in LX-2 cells; assay type: cell-based, human; conditions: siRNA nanocomplex modified with Peptide-431 (SNPP) versus free siRNA, SNCP, SNVP, 50 nM siRNA
Method: as §3

[11] = test system: HSC T6 cells; test: Cell viability (MTT) / apoptotic effect in HSC T6 cells; assay type: cell-based, rat; conditions: HSC-T6, fused to peptide-431
Method: as §1, §2

[12] = test system: LX 2 cells; test: Apparent equilibrium dissociation constant (Kd) on LX 2 cells; assay type: binding, human
Method: as §5
In order to improve the binding affinity of peptide 431, […] may have the molecular structure depicted in FIG. 16A. Affinity of the dimeric peptide 431 was evaluated in LX 2 cells as described above.

VHWDFRQWWQPS [Peptide-431, IGF2R-specific peptide ligand encoded by phage 431]
uptake of proapoptotic KLA peptide ([1]; LX-2, fused to peptide-431): enhances the uptake | cellular uptake of siRNA [2]: highest cellular uptake of siRNA | cellular uptake ([3]; 5 FAM labeled peptide, nonenzymatic cell dissociation solution, 1 h incubation, LX 2): 62% | effect of incubation time on cellular uptake ([3]; LX 2, different incubation time points): time dependent increase | binding affinity compared to the control peptide and other selected peptides ([3]; 1 h incubation): highest binding affinity | binding affinity compared to the control peptide and other selected peptides ([3]; 1 h incubation, listed as Phage No. 431): greatest binding affinity | effect of cell detachment method on cellular uptake ([3]; nonenzymatic cell dissociation solution versus trypsin, LX 2): higher cellular uptake in nonenzymatic cell dissociation solution | Kd [4]: 12.3 µM | specificity for HSCs (biodistribution) [5]: highest specificity for HSCs | cellular uptake in presence of FBS [6]: not significantly affected | cellular uptake after silencing IGF2R with siRNA ([7]; listed as peptide 431): lower uptake | cellular uptake after silencing IGF2R with siRNA ([7]; listed as peptide-431): significantly reduced | specificity to IGF2R on LX 2 cells ([7]; concluded from IGF2R silencing): high specificity | binding affinity to recombinant human IGF2R protein (phage ELISA) [8]: highest binding affinity | binding affinity to recombinant human IGF2R protein (phage ELISA) ([8]; listed as peptide-431): highest binding affinity and specificity | cellular uptake ([9]; 5 FAM labeled peptide, nonenzymatic cell dissociation solution, HSC T6): 12% | binding affinity compared to the control peptide and other selected peptides [9]: highest binding affinity | binding affinity compared to the control peptide and other selected peptides ([9]; listed as Phage No. 431): greatest binding affinity | cellular uptake of siRNA [10]: highest cellular uptake of siRNA | uptake of proapoptotic KLA peptide [11]: enhances the uptake

KLAKLAKKLAKLAK (proapoptotic peptide) [KLA peptide, reference compound]
apoptotic activity / cell death ([1]; LX 2, 48 h, MTT): did not exhibit apoptotic activity

dimeric peptide 431: dimer of Peptide-431 linked via a lysine, imaging agent coupled to the linker (FIG. 16A) (VHWDFRQWWQPS; also: dimer of two peptide chains linked via a lysine, imaging agent coupled to the linker)
improvement of binding affinity (Kd) of dimer compared to monomeric peptide 431 [12]: approximately 9 fold | improvement of binding affinity (Kd) of dimer compared to monomeric peptide 431 ([12]; listed as Dimerization of peptide-431): approximately 9 fold
